Activity calls are given as the source filed them. The calls are words filed in the database; no cut-off is given here.
What was measured:
[1] = test system: Pseudomonas aeruginosa; assay: Antibacterial activity against Pseudomonas aeruginosa PAO1 assessed as inhibition of biofilm formation for 24 hrs by crystal violet staining based assay; type: functional, organism-based; conditions: PAO1, 24 h
[2] = test system: Pseudomonas aeruginosa; assay: Antibiofilm activity against Pseudomonas aeruginosa PAO1 assessed as effect on pyochelin production fluorescence at 1.25 to 20 uM by fluorescence assay; type: functional, organism-based; conditions: dose 1.25-20 µM

COc1ccc(CC(=O)NCc2cc(=O)c(O)cn2O)cc1
IC50 [1]: > 100 µM

COc1ccc(C(=O)NCc2cc(=O)c(O)cn2O)cc1
IC50 [1]: > 100 µM

CCCn1c(C)cc(=O)c(O)c1CNC(=O)c1ccccc1OC
IC50 [1]: 62.9 µM

CCCCCn1c(C)cc(=O)c(O)c1CNC(=O)c1ccc(OC)cc1
IC50 [1]: 52.5 µM

CCn1c(C)cc(=O)c(O)c1CNc1ccc(OC)cc1
IC50 [1]: > 100 µM

CCCCCCCC(=O)NCc1cc(=O)c(O)cn1O
IC50 [1]: > 100 µM

O=C(NCc1cc(=O)c(O)cn1O)c1ccc(C(F)(F)F)cc1
IC50 [1]: > 100 µM

CCCCn1c(C)cc(=O)c(O)c1CNc1ccc(OC)cc1
IC50 [1]: 45.4 µM

COCCn1c(C)cc(=O)c(O)c1CNC(=O)c1ccc(OC)cc1
IC50 [1]: > 100 µM

CC[C@H]1OC(=O)[C@H](C)[C@@H](O[C@H]2C[C@@](C)(OC)[C@@H](O)[C@H](C)O2)[C@H](C)[C@@H](O[C@@H]2O[C@H](C)C[C@H](N(C)C)[C@H]2O)[C@](C)(O)C[C@@H](C)CN(C)[C@H](C)[C@@H](O)[C@]1(C)O [AZITHROMYCIN]
IC50 [1]: 7.1 µM

O=C(NCc1cc(=O)c(O)cn1O)c1ccccc1
IC50 [1]: > 100 µM

CCCCn1c(C)cc(=O)c(O)c1CNC(=O)c1ccccc1OC
IC50 [1]: 28.5 µM

Cc1c(O)c(=O)ccn1C
Activity [2]: inactive

CCCCn1c(C)cc(=O)c(O)c1CNC(=O)c1cccc(OC)c1
IC50 [1]: 31.1 µM

CCCCCC(=O)NCc1cc(=O)c(O)cn1C
IC50 [1]: > 100 µM

CCCn1c(C)cc(=O)c(O)c1CNC(=O)c1ccc(OC)cc1
IC50 [1]: 5.2 µM

CCCn1c(C)cc(=O)c(O)c1CNc1ccc(OC)cc1
IC50 [1]: 55.5 µM

CCn1c(C)cc(=O)c(O)c1CNC1CCCC1
IC50 [1]: > 100 µM

CCCCCC(=O)NCc1cc(=O)c(O)cn1O
IC50 [1]: > 100 µM

COCCn1c(C)cc(=O)c(O)c1CNC(=O)c1ccc(C(F)(F)F)cc1
IC50 [1]: > 100 µM

CCCCn1c(C)cc(=O)c(O)c1CNC(=O)Cc1ccc(F)cc1
IC50 [1]: > 100 µM

Cn1cc(O)c(=O)cc1CNC(=O)c1ccc(C(F)(F)F)cc1
IC50 [1]: > 100 µM

CCCn1c(C)cc(=O)c(O)c1CNC1CCCC1
IC50 [1]: > 100 µM

Source: ChEMBL document CHEMBL5046248, “New Pqs Quorum Sensing System Inhibitor as an Antibacterial Synergist against Multidrug-Resistant Pseudomonas aeruginosa” (J Med Chem, 2022)
